Measurements as given in patent publication US8697662B2, “Methods for treating Kaposi sarcoma” (PTC Therapeutics, Inc., priority 2009, dated 2014).

Columns and labels:
[1] = system: HeLa cells; assay: […]-GLO luminescent cell viability assay in HeLa cultures; format: cell-based, human; settings: any concentration tested
Description: Experimental Design. HeLa (human cervical carcinoma) cell cultures were established under normoxic conditions (21% oxygen). HeLa cells increase VEGF production 4- to 5-fold in response to hypoxia. […] At the completion of treatment, the conditioned media were collected and the VEGF protein levels were assayed in an enzyme-linked immunosorbent assay (ELISA) with primary antibodies that recognize the soluble VEGF121 and VEGF165 isoforms (R & D Systems, Minneapolis, Minn., USA). To ensure that decreases in VEGF concentration were not due to cytotoxicity, cultures were assayed using a standard assay ([…]-GLO® Luminescent Cell Viability Assay; Promega, Madison, Wis., USA) that measures total cellular adenosine triphosphate (ATP) concentrations as an indicator of cell viability.

[2] = system: VEGF189 and VEGF206 isoforms; assay: In-Cell Western and Western blot of matrix associated VEGF189/206 in HT1080 cells; format: cell-based, human; settings: normoxic, 48 hours
Description: Experimental Design. HT1080 (human fibrosacoma) cell cultures were established under normoxic conditions (21% oxygen). HT1080 cells constitutively overproduce VEGF even under normoxic conditions. […] At the completion of treatment, the cells were washed and harvested. Cells were incubated with a primary antibody that recognizes the VEGF189 and VEGF206 isoforms. Infrared-dye labeled antibodies were applied secondarily, and the amounts of VEGF189 and VEGF206 were determined using the IN-CELL WESTERN® assay and ODYSSEY® infrared imaging system (Li-Cor, Lincoln, Nebr., USA); results are expressed as percentage inhibition relative to vehicle treated controls. Conventional Western blotting using the same primary antibody was also performed to confirm the presence of the matrix associated isoforms; for these experiments actin was used as a loading control. Actin is a ubiquitous housekeeping protein that is not known to be post transcriptionally regulated.

[3] = Oral pharmacokinetics / toxicokinetics in rats; format: in vivo, Sprague Dawley rats
Description: The pharmacokinetic evaluations in mice were adjuncts to the primary pharmacodynamic xenograft studies. The evaluations in rats included toxicokinetic assessments in single-dose, 7-day, and 28-day toxicology studies as well as a mass-balance study after a single oral dose of ^14C-Compound #10. The evaluations in dogs included toxicokinetic assessments in 7-day and 28-day toxicology studies. In the studies performed, rodents were dosed once daily with Compound #10 formulated in vehicle and administered via oral gavage.

[4] = biological target: T1, CYP3A4 (Homo sapiens, UniProt P08684); assay: CYP inhibition in human hepatic microsomes or recombinant isoenzymes: CYP3A4; format: in vitro ADME
T1 construct: host or cells: human hepatic microsomes or human recombinant isoenzymes
Excerpt: It is possible that in certain clinical trial subjects, such agents may need to be adjusted for dosing or replaced by alternative agents that are not metabolized by CYP2D6, particularly when such agents may have a low therapeutic index.

[5] = system: bacterial reverse mutation; assay: Bacterial reverse mutation study; settings: with and without exogenous metabolic activation
Description: Genotoxicity was assessed in a battery of in vitro and in vivo studies that included a bacterial reverse mutation study, a chromosome aberration study in Chinese hamster ovary (CHO) cells, and a micronucleus study in rats by the oral route. The in vitro studies were performed in the presence and absence of an exogenous metabolic activation system.

[6] = system: Kaposi Sarcoma lesions; assay: Patients with Kaposi Sarcoma: cutaneous lesion size and quantity; format: in vivo, human
Description: Subjects with HIV-associated KS may receive continuous daily treatment with a Compound being administered BID for up to 48 weeks. […] Response rate of HIV-associated KS to a Compound is an indicator of efficacy.
Compound Administration: Subjects may be administered a Compound at the following dose levels: 40 mg/dose BID, 80 mg/dose BID, and 100 mg/dose BID. A Compound may be orally administered each day on a BID schedule at approximately the same times each day. Ideally, doses should be taken at ˜12-hour intervals (e.g., at ˜7:00 AM and at ˜7:00 PM). If convenient for the subject, the drug may be taken during or within ˜30 minutes after a meal; however, administration with food is not required. Subjects may continue receiving repeated 4-week cycles of a Compound indefinitely or until termination. Compound administration may be terminated because of, e.g., tumor progression or other progression of KS, or a dose-limiting toxicity.
A medical history should be done within 21 days of administration of a Compound and may be done during the treatment course with a Compound (e.g., the first day of every 4 week cycle) and following such treatment. The medical history may include the following information: • 1. Previous HIV-related and non-HIV related diagnoses. • 2. […] For subjects with <50 total skin and oral lesions, all lesions should be evaluated for changes in number and characteristics. […]

T1 sequence (P08684 whole entry): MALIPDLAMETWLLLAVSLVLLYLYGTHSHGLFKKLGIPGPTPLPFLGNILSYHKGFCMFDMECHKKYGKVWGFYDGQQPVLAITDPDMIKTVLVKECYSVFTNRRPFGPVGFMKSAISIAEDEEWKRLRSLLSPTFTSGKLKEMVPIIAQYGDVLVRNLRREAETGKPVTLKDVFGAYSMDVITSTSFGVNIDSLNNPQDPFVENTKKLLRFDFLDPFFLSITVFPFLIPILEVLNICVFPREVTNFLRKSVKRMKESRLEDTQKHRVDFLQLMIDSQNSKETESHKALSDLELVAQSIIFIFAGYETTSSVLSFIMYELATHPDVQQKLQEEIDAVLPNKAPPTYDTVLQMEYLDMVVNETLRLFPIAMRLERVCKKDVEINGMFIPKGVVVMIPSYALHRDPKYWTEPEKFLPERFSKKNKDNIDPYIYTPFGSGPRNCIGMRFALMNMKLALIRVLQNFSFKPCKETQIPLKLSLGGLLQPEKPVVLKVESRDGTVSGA

## COc1ccc(C2c3[nH]c4ccc(Cl)cc4c3CCN2C(=O)Oc2ccc(Cl)cc2)cc1 (racemic) [Compound #10]
[1]
  cytotoxicity (cell viability, ATP): No cytotoxicity was observed
[2]
  inhibition of matrix associated VEGF189 and VEGF206 isoforms (in words): potent concentration-dependent inhibition
[3]
  oral bioavailability (in words): orally bioavailable
[3]; oral
  relationship between dose and plasma exposure (in words): bell-shaped curve
[4]
  inhibition of CYP3A4 (in words): No meaningful inhibition
[5]
  genotoxic effects: no evidence of genotoxic effects
[6]; patients with Kaposi Sarcoma (FIG. 34)
  lesion size (in words): reduced
[6]; patients with Kaposi Sarcoma labeled PR (FIG. 34)
  reduction in the number of raised lesions: ≥ 50%
